{"source": "patent US10040838B2", "about": "“CRHR2 peptide agonists and uses thereof” (JANSSEN PHARMACEUTICA NV, priority 2008, dated 2018)", "note": "Residues, ends and D or L forms follow the SMILES beside them. No end group written: not given here. *: point of attachment. Succinimide(1-Et,3-yl) = CCN1C(=O)CC(*)C1=O"}
{"target": "T1, human CRHR2 (Homo sapiens, UniProt Q13324)", "T1 construct": "expressed in transfected cells", "T1 sequence (Q13324 1-411)": "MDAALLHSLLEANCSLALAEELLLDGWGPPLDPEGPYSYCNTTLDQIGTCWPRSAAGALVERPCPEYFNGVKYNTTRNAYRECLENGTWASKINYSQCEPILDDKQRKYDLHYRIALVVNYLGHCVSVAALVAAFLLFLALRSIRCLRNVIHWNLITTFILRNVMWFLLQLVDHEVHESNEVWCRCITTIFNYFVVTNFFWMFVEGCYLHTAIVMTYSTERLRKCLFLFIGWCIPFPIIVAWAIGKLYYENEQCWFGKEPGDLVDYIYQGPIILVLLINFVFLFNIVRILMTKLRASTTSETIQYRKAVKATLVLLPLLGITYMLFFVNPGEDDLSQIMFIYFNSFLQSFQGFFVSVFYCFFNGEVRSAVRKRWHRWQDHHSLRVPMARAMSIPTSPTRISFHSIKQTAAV", "assay": "cAMP assay in h-CRHR2 transfected SK-N-MC cells", "type": "cell-based", "details": "Table 12; Hill slope", "method": "(§1) The concentration required for 50% maximum effect (A50) was 0.4 nM.\n(§2) Human CRHR1 (accession number X72304) or CRHR2 (accession number U34587) were cloned into pcDNA3.1/Zeo expression vector and stably transfected into SK-N-MC cells by electroporation. Cells were maintained in MEM w/Earl's Salt with 10% FBS, 50 I.U. penicillin, 50 μg/ml streptomycin, 2 mM L-glutamine, 1 mM sodium pyruvate and 0.1 mM nonessential amino acids, 600 μg/ml G418. Cells were grown at 37° C. in 5% CO2.\n(§3) Cells were plated in 96-well tissue culture dishes (Biocoat from BD Biosciences) overnight at 50,000 cell/well. Cells were washed with PBS then resuspended in DMEM F-12 without phenol red, containing 10 μM isobutylmethylxanthine (IBMX). Cells were incubated with the peptides at concentrations ranging from 1 pM to 10 μM for 60 min at 37° Celsius. […] Forskolin (10 μM), a direct stimulant of adenylate cyclase, was used as positive control. The assays were stopped by the addition of 0.5 M HCl and mixing by orbital rotation for 2 h at 4° Celsius.\n(§4) To assess the activity of the inventive peptide at the CRHR2, an intracellular cAMP measurement test using a Flash plate radioactive assay (Catalog No. Cus56088; Perkin Elmer, MA, U.S.A.) was employed.\n(§5) Transfected SK-N-MC cells were plated in 96-well Biocoat tissue culture dishes (BD Biosciences, San Jose, Calif., U.S.A) overnight at 50,000 cell/well. Cells were first washed with PBS and then suspended with DMEM/F-12 without phenol red, containing […]. Suspended cells were transferred into a 96-well flash plate coated with scintillant fluid. Cells were incubated with peptides ranging from […], for 60 min, at 37° Celsius. Forskolin at 10 μM was used as positive control. After ligand stimulation, cells were lysed by the addition of 0.5M HCl and mixed by orbital rotation for 2 h at 4° Celsius in order to release intracellular cAMP into the media.\n(§6) Media containing released intracellular cAMP was transferred to a 96-well flash plate coated with scintillant fluid containing an anti-cAMP antibody. In this assay, intracellular cAMP competes with ^125I-labeled cAMP binding to the antibody. To generate a standard curve, cAMP ranging from 2.5 to 250 pmoles/ml was included in the experiment. [^125I]-cAMP was measured on a TopCount scintillation counter (Perkin Elmer, MA, U.S.A).\n(§7) Individual agonist concentration-response curve data were fitted to the Hill equation, see formula below, using GraphPad Prism (Graphpad Software, La Jolla, Calif., U.S.A.), to provide estimates of agonist concentration needed to generate one-half maximal response (A50), and the maximal asymptote (α) and Hill slope (nH) parameters. In this equation, [A] is the agonist concentration and E is the measured effect:\n(§8) For display purposes the mean fitted parameter estimates were used to generate a single E/[A] curve shown superimposed on the mean experimental data. Potency estimates for agonists, pA50, are expressed as the negative logarithm of the midpoint of each curve and listed with their standard error of measurement (SEM). Logarithm base 10 of the agonist dose ratio (Log DR) values were calculated by subtraction of the test compound pA50 value from the corresponding h-SCP (SEQ ID NO:1) control pA50 value within the same assay batch. The SEM values of the Log DR values are given by the square root of the sum of the squared SEM values of the h-SCP (SEQ ID NO:1) control and test compound pA50 values.\n(§9) Human and rat peptides (see Table 10) were used on the stimulation of h-CRHR1 or h-CRHR2 transfected SK-N-MC cells in the cAMP flash plate assay. Peptides were incubated for 1 hr at 37° Celsius. Curves were calculated using non-linear regression sigmoidal concentration-response analysis calculation in GraphPad Prism. The so obtained pA50 values are shown in Table 11 in addition to literature values. […]"}
{"molecule": "LSLDVPTNIMNLLFNIAKAKNLRAQAAANAHLMAQI-NH2 [SEQ ID NO: 109, LSLDVPINIMNLLFNIAKAKNLRAQAAANAHLMAQI-NH2]", "nH": 0.74}
{"target": "T1, human CRHR2", "assay": "cAMP assay in h-CRHR2 transfected SK-N-MC cells", "type": "cell-based", "details": "Table 13; h-SCP control pA50 minus test compound pA50 within same assay batch", "method": "as §1, §2, §3, §4, §5, §6, §7, §8, §9"}
{"molecule": "CC[C@H](C)[C@H](NC(=O)[C@H](CCC(N)=O)NC(=O)[C@H](C)NC(=O)[C@H](CCSC)NC(=O)[C@H](CC(C)C)NC(=O)[C@H](Cc1c[nH]cn1)NC(=O)[C@H](C)NC(=O)[C@H](CC(N)=O)NC(=O)[C@H](C)NC(=O)[C@H](CSC1CC(=O)N(CC)C1=O)NC(=O)[C@H](C)NC(=O)[C@H](CCC(N)=O)NC(=O)[C@H](C)NC(=O)[C@H](CCCNC(=N)N)NC(=O)[C@H](CC(C)C)NC(=O)[C@H](CC(N)=O)NC(=O)[C@H](CCCCN)NC(=O)[C@H](C)NC(=O)[C@H](CCCCN)NC(=O)[C@H](C)NC(=O)[C@@H](NC(=O)[C@H](CC(N)=O)NC(=O)[C@H](Cc1ccccc1)NC(=O)[C@H](CC(C)C)NC(=O)[C@H](CC(C)C)NC(=O)[C@H](CC(N)=O)NC(=O)[C@H](CCSC)NC(=O)[C@@H](NC(=O)[C@H](CC(N)=O)NC(=O)[C@@H](NC(=O)[C@@H]1CCCN1C(=O)[C@@H](NC(=O)[C@H](CC(=O)O)NC(=O)[C@H](CC(C)C)NC(=O)[C@H](CO)NC(=O)[C@H](CC(C)C)NC(=O)[C@@H](NC(=O)[C@H](Cc1ccccc1)NC(=O)[C@H](CCCCN)NC(=O)[C@@H](N)[C@@H](C)O)[C@@H](C)O)C(C)C)[C@@H](C)O)[C@@H](C)CC)[C@@H](C)CC)C(N)=O", "note": "(stereo partly drawn) [SEQ ID NO: 46, TKFTLSLDVPTNIMNLLFNIAKAKNLRAQAC(-NES)ANAH LMAQI-NH2] (H-TKFTLSLDVPTNIMNLLFNIAKAKNLRAQAC(Succinimide(1-Et,3-yl))ANAHLMAQI-NH2; N-terminus assumed)", "Log DR": 0.04}
{"molecule": "TKFTLSLDVPTNIMNLLCNIAKAKNLRAQAAANAHLMAQI-NH2 [SEQ ID NO: 19, TKFTLSLDVPTNIMNLLCNIAKAKNLRAQAAANAHLMAQI-NH2]", "Log DR": 1.67}
{"molecule": "TKFTLSLDVPTNIMNLLFNIAKAKCLRAQAAANAHLMAQI-NH2 [SEQ ID NO: 26, TKFTLSLDVPTNIMNLLFNIAKAKCLRAQAAANAHLMAQI-NH2]", "Log DR": 0.08}
{"molecule": "CC[C@H](C)[C@H](NC(=O)[C@H](CCC(N)=O)NC(=O)[C@H](C)NC(=O)[C@H](CCSC)NC(=O)[C@H](CC(C)C)NC(=O)[C@H](Cc1c[nH]cn1)NC(=O)[C@H](C)NC(=O)[C@H](CC(N)=O)NC(=O)[C@H](C)NC(=O)[C@H](C)NC(=O)[C@H](C)NC(=O)[C@H](CCC(N)=O)NC(=O)[C@H](C)NC(=O)[C@H](CCCNC(=N)N)NC(=O)[C@H](CC(C)C)NC(=O)[C@H](CC(N)=O)NC(=O)[C@H](CCCCN)NC(=O)[C@H](C)NC(=O)[C@H](CCCCN)NC(=O)[C@H](C)NC(=O)[C@H](CSC1CC(=O)N(CC)C1=O)NC(=O)[C@H](CC(N)=O)NC(=O)[C@H](Cc1ccccc1)NC(=O)[C@H](CC(C)C)NC(=O)[C@H](CC(C)C)NC(=O)[C@H](CC(N)=O)NC(=O)[C@H](CCSC)NC(=O)[C@@H](NC(=O)[C@H](CC(N)=O)NC(=O)[C@@H](NC(=O)[C@@H]1CCCN1C(=O)[C@@H](NC(=O)[C@H](CC(=O)O)NC(=O)[C@H](CC(C)C)NC(=O)[C@H](CO)NC(=O)[C@H](CC(C)C)NC(=O)[C@@H](NC(=O)[C@H](Cc1ccccc1)NC(=O)[C@H](CCCCN)NC(=O)[C@@H](N)[C@@H](C)O)[C@@H](C)O)C(C)C)[C@@H](C)O)[C@@H](C)CC)C(N)=O", "note": "(stereo partly drawn) [SEQ ID NO: 51, TKFTL SLDVP TNIMN LLFNC(-NES) AKAKN LRAQA AANAH LMAQI-NH2] (H-TKFTLSLDVPTNIMNLLFNC(Succinimide(1-Et,3-yl))AKAKNLRAQAAANAHLMAQI-NH2; N-terminus assumed)", "Log DR": 0.68}
{"molecule": "TKFTLSLDVPTNIMNLLFNIAKAKNLRAQAAANACLMAQI-NH2 [SEQ ID NO: 36, TKFTLSLDVPTNIMNLLFNIAKAKNLRAQAAANACLMAQI-NH2]", "Log DR": 0.42}
{"molecule": "TKFTLSLDVPTNIMNLLFNIAKACNLRAQAAANAHLMAQI-NH2 [SEQ ID NO: 25, TKFTLSLDVPTNIMNLLFNIAKACNLRAQAAANAHLMAQI-NH2]", "Log DR": 0.35}
{"molecule": "TKFTLSLDVPTNIMNLLFNIAKAKNLRAQAAACAHLMAQI-NH2 [SEQ ID NO: 34, TKFTLSLDVPTNIMNLLFNIAKAKNLRAQAAACAHLMAQI-NH2]", "Log DR": ">3.19"}
{"molecule": "TKCTLSLDVPTNIMNLLFNIAKAKNLRAQAAANAHLMAQI-NH2 [SEQ ID NO: 4, TKCTLSLDVPTNIMNLLFNIAKAKNLRAQAAANAHLMAQI-NH2]", "Log DR": 1.03}
{"molecule": "CC[C@H](C)[C@H](NC(=O)[C@H](CC(N)=O)NC(=O)[C@H](Cc1ccccc1)NC(=O)[C@H](CC(C)C)NC(=O)[C@H](CC(C)C)NC(=O)[C@H](CC(N)=O)NC(=O)[C@H](CCSC)NC(=O)[C@@H](NC(=O)[C@H](CC(N)=O)NC(=O)[C@@H](NC(=O)[C@@H]1CCCN1C(=O)[C@@H](NC(=O)[C@H](CC(=O)O)NC(=O)[C@H](CC(C)C)NC(=O)[C@H](CO)NC(=O)[C@H](CC(C)C)NC(=O)[C@@H](NC(=O)[C@H](Cc1ccccc1)NC(=O)[C@H](CCCCN)NC(=O)[C@@H](N)[C@@H](C)O)[C@@H](C)O)C(C)C)[C@@H](C)O)[C@@H](C)CC)C(=O)N[C@@H](C)C(=O)N[C@@H](CCCCN)C(=O)N[C@@H](C)C(=O)N[C@@H](CCCCN)C(=O)N[C@@H](CC(N)=O)C(=O)N[C@@H](CC(C)C)C(=O)N[C@@H](CCCNC(=N)N)C(=O)N[C@@H](C)C(=O)N[C@@H](CCC(N)=O)C(=O)N[C@@H](C)C(=O)N[C@@H](C)C(=O)N[C@@H](C)C(=O)N[C@@H](CC(N)=O)C(=O)N[C@@H](C)C(=O)N[C@@H](Cc1c[nH]cn1)C(=O)N[C@@H](CC(C)C)C(=O)N[C@@H](CCSC)C(=O)N[C@@H](C)C(=O)N[C@@H](CCC(N)=O)C(=O)N[C@@H](CSC1CC(=O)N(CC)C1=O)C(N)=O", "note": "(stereo partly drawn) [SEQ ID NO: 42, TKFTLSLDVPTNIMNLLFNIAKAKNLRAQAAANAHLMAQC(-NES)-NH2] (H-TKFTLSLDVPTNIMNLLFNIAKAKNLRAQAAANAHLMAQC(Succinimide(1-Et,3-yl))-NH2; N-terminus assumed)", "Log DR": "~1.72"}
{"molecule": "TKFTLSLDVPTNIMNLLFNIAKAKNCRAQAAANAHLMAQI-NH2 [SEQ ID NO: 27, TKFTLSLDVPTNIMNLLFNIAKAKNCRAQAAANAHLMAQI-NH2]", "Log DR": 0.76}
{"molecule": "TKFTLSCDVPTNIMNLLFNIAKAKNLRAQAAANAHLMAQI-NH2 [SEQ ID NO: 8, TKFTLSCDVPTNIMNLLFNIAKAKNLRAQAAANAHLMAQI-NH2]", "Log DR": 2.86}
{"molecule": "TKFTLSLDVPTCIMNLLFNIAKAKNLRAQAAANAHLMAQI-NH2 [SEQ ID NO: 13, TKFTLSLDVPTCIMNLLFNIAKAKNLRAQAAANAHLMAQI-NH2]", "Log DR": "−0.01"}
{"molecule": "TKFTLSLDVPTNIMNCLFNIAKAKNLRAQAAANAHLMAQI-NH2 [SEQ ID NO: 17, TKFTLSLDVPTNIMNCLFNIAKAKNLRAQAAANAHLMAQI-NH2]", "Log DR": 0.02}
{"target": "T1, human CRHR2", "assay": "cAMP assay in h-CRHR2 transfected SK-N-MC cells", "type": "cell-based", "details": "tested as antagonists of h-SCP at 10 μM; read-out: receptor affinity (KA)", "method": "as §1, §2, §3, §4, §5, §6, §7, §8, §9", "units": {"Kd": "µM"}}
{"molecule": "DVPTNIMNLLFNIAKAKNLRAQAAANAHLMAQI-NH2 [SEQ ID NO: 112, DVPTNIMNLLFNIAKAKNLRAQAAANAHLMAQI-NH2]", "Kd": "< 10"}
